Activity calls are given as the source filed them. No cut-off for these calls is given here.

The target of series [1] is T1, Indoleamine 2,3-dioxygenase 1 (Homo sapiens, UniProt P14902). Description: Inhibition of IDO1 in human whole blood. Format: tissue-based.
Target sequence in this assay (P14902 whole entry): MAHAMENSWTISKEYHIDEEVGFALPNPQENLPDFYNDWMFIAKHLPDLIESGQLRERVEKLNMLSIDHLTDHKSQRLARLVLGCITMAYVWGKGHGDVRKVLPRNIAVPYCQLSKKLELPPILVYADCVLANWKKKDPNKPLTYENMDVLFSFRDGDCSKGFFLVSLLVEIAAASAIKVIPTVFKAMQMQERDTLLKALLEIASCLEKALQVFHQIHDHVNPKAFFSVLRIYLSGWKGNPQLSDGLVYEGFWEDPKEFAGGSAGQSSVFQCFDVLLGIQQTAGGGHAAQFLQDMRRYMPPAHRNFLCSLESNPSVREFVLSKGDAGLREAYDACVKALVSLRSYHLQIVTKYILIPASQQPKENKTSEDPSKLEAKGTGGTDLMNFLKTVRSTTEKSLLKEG
The target of series [2] is T1, Indoleamine 2,3-dioxygenase 1. Description: Inhibition of IDO1 in human SKOV3 cells. Format: cell-based, SK-OV-3.
Target sequence in this assay (P14902 whole entry): as above
Series [3] in a line: Metabolic stability in mouse liver microsomes assessed as intrinsic clearance. Conditions: read-out: CLH. Format: ADME, Microsome.
The nature of series [4]: Metabolic stability in human liver microsomes assessed as intrinsic clearance. Format: ADME, Microsome. The settings on record: read-out: CLH.
The target of series [5] is Tryptophan 2,3-dioxygenase (Homo sapiens, UniProt P48775). Kind of series: Inhibition of TDO in HEK cells. Format: cell-based.
Tryptophan 2,3-dioxygenase, sequence (P48775 whole entry): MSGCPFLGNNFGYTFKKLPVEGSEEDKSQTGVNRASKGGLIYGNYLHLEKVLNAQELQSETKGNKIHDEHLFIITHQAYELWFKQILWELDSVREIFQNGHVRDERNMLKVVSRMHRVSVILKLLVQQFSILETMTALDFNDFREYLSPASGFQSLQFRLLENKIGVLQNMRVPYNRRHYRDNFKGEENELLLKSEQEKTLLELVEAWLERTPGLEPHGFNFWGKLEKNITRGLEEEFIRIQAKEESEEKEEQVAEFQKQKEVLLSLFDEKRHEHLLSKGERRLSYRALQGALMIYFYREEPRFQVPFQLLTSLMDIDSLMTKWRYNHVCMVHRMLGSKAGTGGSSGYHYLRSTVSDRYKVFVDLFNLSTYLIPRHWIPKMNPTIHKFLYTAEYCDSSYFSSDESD
In series [6] the target is T2, hERG (KCNH2) (Homo sapiens, UniProt Q12809). Kind of series: Inhibition of human ERG at 10 uM relative to control.
T2 sequence (Q12809 whole entry): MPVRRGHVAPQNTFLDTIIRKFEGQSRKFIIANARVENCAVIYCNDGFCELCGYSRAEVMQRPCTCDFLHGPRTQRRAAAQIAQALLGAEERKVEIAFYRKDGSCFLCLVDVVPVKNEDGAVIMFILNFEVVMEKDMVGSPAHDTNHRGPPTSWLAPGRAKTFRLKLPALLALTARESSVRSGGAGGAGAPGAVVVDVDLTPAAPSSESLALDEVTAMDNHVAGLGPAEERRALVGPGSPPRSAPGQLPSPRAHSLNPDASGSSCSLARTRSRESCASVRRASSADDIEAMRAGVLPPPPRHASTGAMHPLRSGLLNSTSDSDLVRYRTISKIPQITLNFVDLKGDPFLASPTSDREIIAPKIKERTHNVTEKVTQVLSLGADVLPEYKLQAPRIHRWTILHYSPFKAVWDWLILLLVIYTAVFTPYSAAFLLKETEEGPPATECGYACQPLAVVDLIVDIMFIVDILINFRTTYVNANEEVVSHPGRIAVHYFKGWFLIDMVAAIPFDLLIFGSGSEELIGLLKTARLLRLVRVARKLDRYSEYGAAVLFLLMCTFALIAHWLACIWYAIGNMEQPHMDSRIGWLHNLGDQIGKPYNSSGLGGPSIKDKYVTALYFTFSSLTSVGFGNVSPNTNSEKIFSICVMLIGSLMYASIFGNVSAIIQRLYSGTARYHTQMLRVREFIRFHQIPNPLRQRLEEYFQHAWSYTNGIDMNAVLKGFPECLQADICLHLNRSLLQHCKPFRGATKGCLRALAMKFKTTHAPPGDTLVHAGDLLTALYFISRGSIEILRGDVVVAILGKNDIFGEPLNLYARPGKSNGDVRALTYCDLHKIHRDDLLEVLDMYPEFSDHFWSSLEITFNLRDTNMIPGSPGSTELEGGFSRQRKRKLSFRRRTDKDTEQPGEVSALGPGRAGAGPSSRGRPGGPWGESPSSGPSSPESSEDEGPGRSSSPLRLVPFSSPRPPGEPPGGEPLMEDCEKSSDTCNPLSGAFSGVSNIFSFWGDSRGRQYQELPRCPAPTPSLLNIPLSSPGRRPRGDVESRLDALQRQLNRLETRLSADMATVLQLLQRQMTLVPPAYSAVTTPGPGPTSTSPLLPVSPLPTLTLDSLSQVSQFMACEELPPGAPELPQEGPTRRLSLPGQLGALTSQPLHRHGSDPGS
The target in the next series is Cytochrome P450 2C9 (Homo sapiens, UniProt P11712). Description: Inhibition of CYP2C9 (unknown origin). The series is classed as ADME.
Cytochrome P450 2C9, sequence (P11712 whole entry): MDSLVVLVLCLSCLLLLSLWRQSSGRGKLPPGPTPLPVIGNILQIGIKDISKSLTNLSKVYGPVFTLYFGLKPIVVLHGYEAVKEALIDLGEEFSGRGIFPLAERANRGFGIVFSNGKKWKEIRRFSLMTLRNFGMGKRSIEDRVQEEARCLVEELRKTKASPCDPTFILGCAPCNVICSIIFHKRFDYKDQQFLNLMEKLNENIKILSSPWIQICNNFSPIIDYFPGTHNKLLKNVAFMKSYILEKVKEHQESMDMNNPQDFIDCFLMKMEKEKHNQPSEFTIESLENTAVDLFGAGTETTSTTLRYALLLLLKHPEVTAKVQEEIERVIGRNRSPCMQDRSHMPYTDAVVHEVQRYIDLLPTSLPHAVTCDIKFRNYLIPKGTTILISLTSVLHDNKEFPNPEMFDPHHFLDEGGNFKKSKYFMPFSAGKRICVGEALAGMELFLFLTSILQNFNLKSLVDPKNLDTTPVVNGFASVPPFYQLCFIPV
Series [7] concerns the target T1, Indoleamine 2,3-dioxygenase 1. Description: Binding affinity to IDO1 (unknown origin) assessed as change in melting temperature at 5 uM by thermal shift assay.
Target sequence in this assay (P14902 whole entry, looked up): as the sequence (P14902 whole entry) above
Series [8] concerns the target Indoleamine 2,3-dioxygenase 1 (Mus musculus, UniProt P28776). Description: Inhibition of mouse IDO1 expressed in HEK cells. The series is classed as cell-based.
The target of series [9] is Indoleamine 2,3-dioxygenase 1 (Mus musculus) (UniProt P28776). Kind of series: In vivo inhibition of IDO1 in mouse assessed as reduction in LPS-induced kynurenine level at 30 mg/kg, po administered as single dose measured after 36 hrs relative to control. Format: functional, organism-based.
Indoleamine 2,3-dioxygenase 1 (Mus musculus), sequence (P28776 whole entry, looked up): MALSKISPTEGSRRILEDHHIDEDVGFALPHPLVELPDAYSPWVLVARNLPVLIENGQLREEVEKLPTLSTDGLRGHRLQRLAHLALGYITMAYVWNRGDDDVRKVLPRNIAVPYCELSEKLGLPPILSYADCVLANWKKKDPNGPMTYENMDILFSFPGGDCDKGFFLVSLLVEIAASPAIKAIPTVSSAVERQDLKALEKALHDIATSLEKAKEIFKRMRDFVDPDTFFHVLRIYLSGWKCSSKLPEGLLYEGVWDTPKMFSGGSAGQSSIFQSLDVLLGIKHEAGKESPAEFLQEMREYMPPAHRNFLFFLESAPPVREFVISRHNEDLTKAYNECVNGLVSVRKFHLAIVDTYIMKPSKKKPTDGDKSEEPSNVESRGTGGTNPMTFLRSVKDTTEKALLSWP
Series [10] is described as follows: Metabolic stability in human hepatocytes assessed as intrinsic clearance measured per million cells. Format: ADME, cell-based, Hepatocyte. Conditions: read-out: CLH.
Series [11] can be described thus: Metabolic stability in human hepatocytes assessed as half life. The series is classed as ADME, cell-based, Hepatocyte.
The nature of series [12]: Half life in mouse at 10 mg/kg, po. Format: ADME, organism-based. Conditions: in vivo.
Series [13] can be described thus: AUC(0 to 24 hrs) in mouse at 10 mg/kg, po. Format: ADME, organism-based. On the set-up: time < 24 hr, route oral, dose 10 mg/kg. The settings on record: in vivo.
Series [14] in a line: Cmax in mouse at 10 mg/kg, po. Format: ADME, organism-based. Also on record: route oral, dose 10 mg/kg. The settings on record: in vivo.
Series [15] addresses Indoleamine 2,3-dioxygenase 1 (Mus musculus) (UniProt P28776). Description: In vivo inhibition of IDO1 in mouse assessed as reduction in kynurenine level. The series is classed as functional.
The nature of series [16]: Metabolic stability in rat hepatocytes assessed as intrinsic clearance measured per million cells. Conditions: read-out: CLH. The series is classed as ADME, cell-based, Hepatocyte.
A short description of series [17]: Metabolic stability in rat hepatocytes assessed as half life. Format: ADME, cell-based, Hepatocyte.
Series [18] in a line: Metabolic stability in mouse hepatocytes assessed as intrinsic clearance measured per million cells. Format: ADME, cell-based, Hepatocyte. The settings on record: read-out: CLH.
Series [19] can be described thus: Metabolic stability in mouse hepatocytes assessed as half life. The series is classed as ADME, cell-based, Hepatocyte.
The nature of series [20]: Half life in rat at 10 mg/kg, po. The series is classed as ADME, organism-based. The settings on record: in vivo.
A short description of series [21]: AUC(0 to 72 hrs) in rat at 10 mg/kg, po. On the set-up: time < 72 hr, route oral, dose 10 mg/kg. Format: ADME, organism-based. Conditions: in vivo.
Series [22] can be described thus: Cmax in rat at 10 mg/kg, po. The series is classed as ADME, organism-based. Also on record: route oral, dose 10 mg/kg. Conditions: in vivo.
The nature of series [23]: AUC(0 to 72 hrs) in mouse at 10 mg/kg, po. The series is classed as ADME, organism-based. Also on record: time < 72 hr, route oral, dose 10 mg/kg. Conditions: in vivo.
In series [24] the target is T2, hERG (KCNH2). Kind of series: Inhibition of human ERG assessed as reduction in channel tail current at 10 uM by patch clamp assay relative to control.
A further series concerns the target Cytochrome P450 3A4 (Homo sapiens, UniProt P08684). Kind of series: Inhibition of CYP3A4 (unknown origin). The series is classed as ADME.
Series [25] is described as follows: Plasma protein binding in mouse. Format: ADME, cell-free. Conditions: read-out: PPB (converted).
Series [26] in a line: Plasma protein binding in human. Format: ADME, cell-free. The settings on record: read-out: PPB.

Indoleamine 2,3-dioxygenase 1 (Mus musculus, UniProt P28776), sequence (P28776 whole entry): as the sequence (P28776 whole entry, looked up) above
Cytochrome P450 3A4, sequence (P08684 whole entry): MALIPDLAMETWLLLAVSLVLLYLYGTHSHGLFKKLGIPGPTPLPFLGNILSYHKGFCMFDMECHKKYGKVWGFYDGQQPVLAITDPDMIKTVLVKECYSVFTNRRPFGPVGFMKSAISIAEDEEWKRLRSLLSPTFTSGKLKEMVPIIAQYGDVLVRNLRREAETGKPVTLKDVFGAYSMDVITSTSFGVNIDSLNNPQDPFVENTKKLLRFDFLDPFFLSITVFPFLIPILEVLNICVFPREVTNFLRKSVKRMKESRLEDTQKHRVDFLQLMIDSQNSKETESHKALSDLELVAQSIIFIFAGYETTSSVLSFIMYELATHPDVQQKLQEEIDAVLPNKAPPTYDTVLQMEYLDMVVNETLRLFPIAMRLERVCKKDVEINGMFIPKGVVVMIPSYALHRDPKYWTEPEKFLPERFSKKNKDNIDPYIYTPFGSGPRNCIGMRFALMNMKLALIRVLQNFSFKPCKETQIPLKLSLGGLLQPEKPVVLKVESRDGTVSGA

Consider `O=C(Nc1ccc(Cl)cc1)C(=O)N1CCC2(CC1)COc1cc(C(F)(F)F)ccc12`, for which the results for the half-inhibitory concentration (IC50) in series [1] and in [2] were 1700 nM and 32 nM, respectively.
Consider `O=C(Nc1ccc(Cl)cc1)C(=O)N1CCC(c2ccnc3ccc(F)cc23)CC1`, for which the IC50 in series [1] was 1600 nM; in series [2], 15 nM.
In the case of `O=C(Nc1ccc(Cl)cc1)C(CC1CC1)N1CCC2(CC1)COc1cc(C(F)(F)F)ccc12` (stereo not drawn), the microsomal CLint in series [3] worked out at 14 µL/min/mg; in series [4] it was 13 µL/min/mg. Moreover, the IC50 in [1] came to 300 nM; in series [5], 15900 nM; in series [2], 4.4 nM.
Turning to `CC[C@H](C(=O)Nc1ccc(Cl)cc1)N1CCC2(CC1)COc1cc(C(F)(F)F)ccc12` (stereo in doubt), the microsomal CLint in series [3] was 48 µL/min/mg; in series [4], 17 µL/min/mg. For the same compound, the IC50 in [5] stood at 15500 nM; in [2] it was 109 nM.
Take `CC[C@@H](C(=O)Nc1ccc(Cl)cc1)N1CCC2(CC1)COc1cc(C(F)(F)F)ccc12` (stereo in doubt): testing at 10 µM at hERG (KCNH2) [6] gave an inhibition of 85%. Also, the 50% inhibitory concentration (IC50) on Cytochrome P450 2C9 came out at 5000 nM; in series [8] it was 38 nM; in series [1], 360 nM; in [5] it was 11400 nM; in series [2], 12 nM. In addition, in [7], the thermal shift (ΔTm) worked out at 15.2 °C. The microsomal CLint in series [3] is 53 µL/min/mg; in series [4], 22 µL/min/mg.
As for `C[C@@H](C(=O)Nc1ccc(Cl)cc1)[C@H]1CC[C@@]2(CC1)COc1cc(C(F)(F)F)ccc12`, the figures for the microsomal CLint in [3] and in series [4] were 92 µL/min/mg and 43 µL/min/mg, respectively. Further, the half-inhibitory concentration (IC50) turned out to be 10300 nM in series [5] and 6.6 nM in series [2].
Regarding `CC(C(=O)Nc1ccc(Cl)cc1)N1CCC2(CC1)COc1cc(C(F)(F)F)ccc12` (racemic), the microsomal CLint was 56 µL/min/mg in series [3] and 11 µL/min/mg in [4]. The results for the half-maximal inhibitory concentration (IC50) in [1], in series [5] and in series [2] were 1320 nM, 35600 nM and 22 nM, respectively.
In the case of `C[C@H](C(=O)Nc1ccc(Cl)cc1)[C@H]1CC[C@]2(CC1)COc1ncc(C(F)(F)F)cc12`, the values for the microsomal CLint in series [3] and in [4] were 19 µL/min/mg and 3 µL/min/mg, respectively. Besides, the figures for the IC50 in series [5] and in series [2] were 18400 nM and 7.9 nM, respectively.
On to `C[C@H](C(=O)Nc1ccc(Cl)cc1)[C@H]1CC[C@@]2(CC1)COc1cc(C(F)(F)F)ccc12`, for which the microsomal CLint in series [3] stood at 193 µL/min/mg; in [4] it was 67 µL/min/mg. Besides, the IC50 in [1] was 51 nM; in [5] it was 7800 nM; in series [2], 5.1 nM.
As to `CC(C(=O)Nc1ccc(Cl)cc1)N1CCC2(CCc3ccccc32)CC1` (racemic), the microsomal CLint turned out to be 668 µL/min/mg in series [3] and 326 µL/min/mg in series [4]. For the same compound, the half-maximal inhibitory concentration (IC50) amounted to 39000 nM in series [5] and 39 nM in series [2].
`O=C(CN1CCC2(CCc3ccccc32)CC1)Nc1ccc(Cl)cc1`: the IC50 in series [5] was 42800 nM; in series [2] it was 670 nM.
Consider `O=C(Nc1ccc(Cl)cc1)C(CCO)N1CCC2(CC1)COc1cc(C(F)(F)F)ccc12` (stereo not drawn), for which the IC50 in series [5] turned out to be 9500 nM; in series [2], 86 nM.
As for `CCC(C(=O)Nc1ccc(Cl)cc1)N1CCC2(CCOc3cc(C(F)(F)F)ccc32)CC1` (stereo not drawn), the values for the microsomal CLint in series [3] and in series [4] were 39 µL/min/mg and 22 µL/min/mg, respectively. The IC50 in [1] came out at 360 nM; in series [5], 11800 nM; in series [2], 12 nM.
In the case of `C[C@@H](C(=O)Nc1ccc(Cl)cc1)[C@H]1CC[C@@H](c2ccnc3ccc(F)cc32)CC1`, the inhibition entry in series [9] was “Active”. In addition, in series [10], the hepatocyte CLint was found to be 4.5 µL/min/1e6 cells. For the same compound, the half-life in series [11] is 2.55 h; in series [12] it was 2.5 h. This compound showed an exposure AUC(0-t) at 24 h in series [13] of 9.3 µM·h. Further, the highest level in series [14] (Cmax) was 2000 nM.
As to `O=C(CN1CCC2(CC1)COc1cc(C(F)(F)F)ccc12)Nc1ccc(Cl)cc1`, the half-inhibitory concentration (IC50) in series [5] is 25700 nM; in series [2], 260 nM.
With `C[C@H](C(=O)Nc1ccc(Cl)cc1)[C@H]1CC[C@]2(CC1)COc1nc(C(F)(F)F)ccc12`, the microsomal CLint in series [3] amounted to 3.5 µL/min/mg; in [4], 1.6 µL/min/mg. The IC50 in [5] is 7100 nM; in series [2], 5.4 nM.
With `CC[C@H](C(=O)Nc1ccc(Cl)cn1)[C@H]1CC[C@]2(CC1)COc1cc(C(F)(F)F)ccc12`, the microsomal CLint in series [3] is 30 µL/min/mg; in series [4], 5.9 µL/min/mg. Also, the IC50 is 320 nM in series [1], 26400 nM in series [5] and 7 nM in series [2].
For the compound `C[C@@H](C(=O)Nc1ccc(Cl)cc1)[C@H]1CC[C@]2(CC1)COc1cc(C(F)(F)F)ccc12`, the microsomal CLint in series [3] came out at 4.5 µL/min/mg; in [4], 3.7 µL/min/mg. In addition, the concentration for half-maximal inhibition (IC50) amounted to 10500 nM in [5] and 69 nM in series [2].
Take `CC(C)(C(=O)Nc1ccc(Cl)cc1)N1CCC2(CC1)COc1cc(C(F)(F)F)ccc12`: the microsomal CLint was determined as 117 µL/min/mg in [3] and 34 µL/min/mg in series [4]. In addition, the IC50 in series [5] stood at 47900 nM; in series [2], 11 nM.
In the case of `C[C@H](C(=O)Nc1ccc(Cl)cc1)[C@H]1CC[C@]2(CC1)COc1cc(C(F)(F)F)ccc12`, in [9], the inhibition entry is “Active”. For the same compound, in series [15], the inhibition result is “inactive”. For the same compound, the values for the hepatocyte CLint in series [10], in series [16] and in [18] were 4 µL/min/1e6 cells, 5.6 µL/min/1e6 cells and 1.7 µL/min/1e6 cells, respectively. In addition, the half-life was 2.92 h in series [11]; 2.08 h in series [17]; 6.65 h in series [19]; 49 h in series [20]; 115 h in series [12]. For the same compound, the area under the curve AUC(0-t) at 72 h stood at 18.2 µM·h in [21] and 105 µM·h in series [23]. Also, the figures for the Cmax in series [22] and in series [14] were 580 nM and 2880 nM, respectively. Besides, the results for the inhibition at 10 µM at hERG (KCNH2) [24] and against hERG (KCNH2) [6] were 44% and 67%, respectively. For the same compound, the half-inhibitory concentration (IC50) turned out to be 3100 nM against Cytochrome P450 3A4; 7.8 nM in series [8]; 52 nM in series [1]; 7300 nM in series [5]; 3.9 nM in [2]. Also, the fraction unbound was 0.005 in series [25] and 0.001 in series [26]. Moreover, the thermal shift (ΔTm) in [7] turned out to be 17.8 °C. The microsomal CLint in series [3] and in [4] was < 1 µL/min/mg throughout.
Take `CC(C(=O)Nc1ccc(Cl)cc1)C1CCC2(CC1)c1ccc(C(F)(F)F)cc1CN2C` (stereo not drawn): the microsomal CLint in series [3] was determined as 9.5 µL/min/mg; in [4], 1.4 µL/min/mg. Also, the figures for the IC50 in series [5] and in series [2] were 7100 nM and 8.3 nM, respectively.

(Values after ChEMBL document CHEMBL4673358 (Bioorg Med Chem Lett, 2021).)
